The results in this text go back to PMC11023993, “Piperine, quercetin, and curcumin identified as promising natural products for topical treatment of cutaneous leishmaniasis” (Parasitology Research, 2024).

This test has as its system L. braziliensis. Particulars: n = 6. An excerpt:
Golden hamsters (Mesocricetus auratus) were purchased from Charles River Laboratories (Wilmington MA, USA) and bred under specific pathogen-free conditions at the animal facility unit of the Universidad de Antioquia in Medellín, Colombia. Six- to eight-week-old, male, and female hamsters were used for the experiments. Animal experimentation protocols including handling of the animals, sample collection, and euthanasia were done in compliance of the Center for Diseases Control and Prevention guidelines for Safe Work Practices in Human and Animal Medical Diagnostic Laboratories and ARRIVE guidelines (Percie du Sert et al. [2020b]; Khairani et al. [2022]) and approved by the Institutional Ethical Committee for animal experimentation (Act No. 152 of June 01, 2023) (Percie du Sert et al. [2020a]; Khairani et al. [2022]).
Hamsters were anesthetized with ketamine (80 mg/kg, i.p.) and xylazine (15 mg/Kg) before infection and then, ∼1 × 10^8 promastigotes in stationary phase (6 days-old growth) were inoculated into the dorsum dermis (Robledo et al. [2012]). When hamsters developed ulcers larger than 12.5 mm^2, hamsters were randomly distributed into 4 groups (n = 6, each): (1) group treated with QUE (1 mg/day), (2) group treated with PIP (2.5 mg/day), (3) group treated with CUR (1.5 mg/day), (4) group treated with meglumine antimoniate (treatment control group, 200 µg/mL, intralesional). No vehicle control group was included in the present study because castor oil additive is a nonionic surfactant commonly used as an excipient in pharmaceutical formulations, particularly in solubilizing poorly water-soluble drugs. It is widely used as an ingredient in cosmetics for its conditioning properties, based on occlusive action, reducing water loss, and having a nourishing effect on the skin, hair, and nails (Marwat et al. [2017]; Khairani et al. [2022]).
Hamsters were treated daily with 40 µL of the corresponding formulation for 2 weeks, applying it directly over the lesion, while hamsters treated with meglumine antimoniate received treatment three times per week for 4 weeks. Lesion area was measured every week for 90 days with an electronic digital caliper. The body weight gain or loss was supervised every 2 weeks during the study. At the end of the study, hamsters were euthanized with an i.p. injection of ketamine (600 mg/kg) and xylazine (30 mg/kg). The experiments were carried out under normal laboratory lighting conditions. After necropsy, biopsies from healed and unhealed ulcers were removed and fixed in 10% buffered formalin, processed, and stained with hematoxylin–eosin (H-E) stain for histopathology analysis. The changes were analyzed under a standard optical microscope.

As to `O=c1c(O)c(-c2ccc(O)c(O)c2)oc2cc(O)cc(O)c12` [Quercetin, quercetin], the treatment failures entry (topical daily for 15 days) was “No failures”. Under “topical in castor oil daily for 15 days, QUE 1 mg/day, CUR 1.5 mg/day, PIP 2.5 mg/day, followed 90 days”, the “therapeutic response (hamsters cured)” value came out at 100%.
